The subject of test [1] is MDA-MB-231. The experiment in a line: SRB colorimetric assay of cell growth and viability, MDA-MB-231. The class given is cell-based. The following applies: for LC50 / GI50: Homo sapiens; for LC50: MDA-MB-231, 72 h, read-out: LC50 MDA-MB-231; for GI50: MDA-MB-231, NCI algorithm; for GI50 / TGI MDA-MB-231: 72 hours treatment, SRB; for TGI MDA-MB-231: total cell growth inhibition. The text has this:
(§1) Using the mean±SD of triplicate cultures, a dose-response curve was automatically generated using nonlinear regression analysis.
For orientation: In SRB staining, fixed cells bind dye roughly in proportion to their protein.

Test [2] deals with MDA-MB-231. Briefly: SRB cytotoxicity assay, MDA-MB-231 (HER2-). The class given is cell-based. The following applies: Homo sapiens, MDA-MB-231, 72 h, read-out: IC50 MDA-MB-231. As to the method: (§2) For SK-BR-3, HCC-1954, MDA-MB-231 and MCF-7 cells, a colorimetric assay using Sulforhodamine B (SRB) was adapted for quantitative measurement of cell growth and cytotoxicity, as described in V. Vichai and K. Kirtikara. Sulforhodamine B colorimetric assay for cytotoxicity screening. Nature Protocols, 2006, 1, 1112-1116. Briefly, cells were seeded in 96-well microtiter plates and allowed to stand for 24 hours in drug-free medium before treatment with vehicle alone or with the tested substances for 72 hours.
(§3) Cell survival was expressed as percentage of control, untreated cell survival.

The test system of test [3] is HT29. Briefly: SRB colorimetric assay of cell growth and viability, HT29. It is filed as cell-based. The conditions noted are these: for CC50 / GI50: Homo sapiens; for CC50: HT-29, 72 h, read-out: LC50 HT29; for GI50: HT-29, NCI algorithm; for GI50 / TGI HT29: 72 hours treatment, SRB; for TGI HT29: total cell growth inhibition.
Description: as §1

Test [4] deals with A549. The experiment in a line: SRB colorimetric assay of cell growth and viability, A549. The class given is cell-based. The following applies: for CC50 / GI50: Homo sapiens; for CC50: A549, 72 h, read-out: LC50 A549; for GI50: A549, NCI algorithm; for GI50 / TGI A549: 72 hours treatment, SRB; for TGI A549: total cell growth inhibition.
Description: as §1

The test system of test [5] is SK-BR-3, HCC-1954, MDA-MB-231 and MCF-7 cells. Briefly: cells. It is filed as cell-based. The following applies: Homo sapiens, 72 h. On the procedure: as §2, §3
Test [6] deals with MCF-7. Briefly: SRB cytotoxicity assay, MCF-7 (HER2-). It is filed as cell-based. The conditions noted are these: Homo sapiens, MCF7, 72 h, read-out: IC50 MCF-7. On the procedure:
as §2, §3

Test [7] concerns PSN1. Briefly: SRB colorimetric assay of cell growth and viability, PSN1. It is filed as cell-based. The following applies: for LC50 / GI50: Homo sapiens; for LC50: PSN1, 72 h, read-out: LC50 PSN1; for GI50: PSN1, NCI algorithm; for GI50 / TGI PSN1: 72 hours treatment, SRB; for TGI PSN1: total cell growth inhibition.
Description: as §1

Test [8] relates to HCC-1954. The experiment in a line: SRB cytotoxicity assay, HCC-1954 (HER2+). It is filed as cell-based. The following applies: Homo sapiens, HCC1954, 72 h, read-out: IC50 HCC-1954. On the procedure: as §2, §3
For test [9], the system named is SK-BR-3. Briefly: SRB cytotoxicity assay, SK-BR-3 (HER2+). The class given is cell-based. The conditions noted are these: Homo sapiens, SK-BR-3, 72 h, read-out: IC50 SK-BR-3. As to the method: as §2, §3
Test [10] relates to B16 melanoma. The following applies: very low concentrations; cited from earlier work.
Test [11] concerns Lewis lung carcinoma. The following applies: very low concentrations; cited from earlier work.
Test [12] concerns P388 lymphoma. The following applies: very low concentrations; cited from earlier work.
Where [13] appears, read: read-out: geometric mean IC50 value across the whole cell panel.

The values that follow come from patent US20240131180A1, “DRUG ANTIBODY CONJUGATES” (PHARMA MAR, S.A., priority 2020, published 2024).

Several values for one entry are separate records, joined by “and”; a condition that tells them apart may be missing. Identical values can stand only once. Like-named read-outs stand apart in the source and are kept apart here. Where only a bound is given, the exact number is not on record here.

The LC50 is the concentration that kills 50% of the test population. Broadly, the GI50 is the concentration that inhibits growth by half. Higher therefore signals lower sensitivity of the cells. As usually defined, the IC50 is the midpoint of a concentration-inhibition curve. Take `COc1ccc2[nH]c3c(c2c1)CCN[C@]31CS[C@@H]2c3c(OC(C)=O)c(C)c4c(c3[C@H](COC1=O)N1[C@@H]2[C@@H]2N[C@@H](Cc3cc(C)c(OC)c(O)c32)[C@@H]1O)OCO4` [Compound 1]: the LC50 in [1] amounted to 2.46 nM; in test [7], 2.34 nM. Further, the concentration for 50% growth inhibition (GI50) amounted to 0.752 nM in test [1], 1.28 nM in test [3], 1.82 nM in test [4] and 1.22 nM in [7]. In [1], the “TGI MDA-MB-231” value turned out to be 1.30E−09 Molar. For the same compound, the IC50 in [2] is 0.00068 µg/mL and 0.882 nM; in [5] (read-out: IC50 values in all the tumor cell lines (range)) it was 0.882 to 1.95 nM; in test [5] (setting [13]) it was 1.32 nM; in [6], 0.0012 µg/mL and 1.56 nM; in [8] it was 0.0015 µg/mL and 1.95 nM; in test [9], 0.00086 µg/mL and 1.12 nM. The CC50 was over 130 nM in test [3] and 7.78 nM in test [4]. In test [3], the “TGI HT29” value stood at 1.43E−09 Molar. In test [4], the “TGI A549” value was 3.37E−09 Molar. In test [7], the “TGI PSN1” value was 1.69E−09 Molar.

Take `COc1ccc2[nH]c3c(c2c1)CCN[C@]31CS[C@@H]2c3c(OC(C)=O)c(C)c4c(c3[C@H](COC1=O)N1[C@@H]2[C@@H]2N[C@@H](Cc3cc(C)c(OC)c(O)c32)[C@@H]1C#N)OCO4` [Compound 2]: the LC50 in [1] stood at 5.77 nM; in test [7], 5 nM. Moreover, the 50% growth inhibitory concentration (GI50) in [1] is 5 nM; in [3], 5.13 nM; in [4] it was 12.8 nM; in [7] it was 2.05 nM. For the same compound, in test [1], the “TGI MDA-MB-231” value amounted to 5.26E−09 Molar. The IC50 in test [2] is 0.00069 µg/mL and 0.885 nM; in [5] (setting [13]), 1.53 nM; in test [6] it was 0.0017 µg/mL and 2.18 nM; in test [8], 0.0018 µg/mL and 2.31 nM; in test [9] it was 0.00096 µg/mL and 1.23 nM. For the same compound, the values for the CC50 in test [3] and in [4] were at least 1280 nM and over 1280 nM, respectively. In addition, the “TGI HT29” value in test [3] turned out to be 5.64E−09 Molar. Besides, the “TGI A549” value in test [4] is 1.28E−08 Molar. For the same compound, the “TGI PSN1” value in [7] is listed as 3.08E−09 Molar.

For `COc1ccc2[nH]c3c(c2c1)C[C@H](CO)N[C@]31CS[C@@H]2c3c(OC(C)=O)c(C)c4c(c3[C@H](COC1=O)N1[C@@H]2[C@@H]2N[C@@H](Cc3cc(C)c(OC)c(O)c32)[C@@H]1C#N)OCO4` [Compound 10-R], in test [1], the LC50 worked out at 3.09 nM, the GI50 came to 0.679 nM and the “TGI MDA-MB-231” value is on record as 1.21E−09 Molar. Also, in [3], the CC50 was over 123 nM, growth was halved (GI50) at 0.864 nM and the “TGI HT29” value came out at 1.61E−09 Molar. In test [4], the CC50 was over 123 nM, the GI50 is 4.32 nM and the “TGI A549” value was found to be 1.20E−08 Molar. Also, in test [7], the LC50 was over 123 nM, it took 0.753 nM to inhibit growth by half (GI50) and the “TGI PSN1” value was determined as 1.48E−09 Molar.

As to `COc1ccc2[nH]c3c(c2c1)C[C@H](CO)N[C@]31CS[C@@H]2c3c(OC(C)=O)c(C)c4c(c3[C@H](COC1=O)N1[C@@H]2[C@@H]2N[C@@H](Cc3cc(C)c(OC)c(O)c32)[C@@H]1O)OCO4` [Compound 11-R], in [1], the LC50 came to 7.24 nM, the GI50 is 1.62 nM and the “TGI MDA-MB-231” value came to 2.87E−09 Molar. Moreover, in [3], the CC50 is over 125 nM, growth was halved (GI50) at 2 nM and the “TGI HT29” value is listed as 3.62E−09 Molar. For the same compound, in [4], the CC50 was over 125 nM, growth was halved (GI50) at 15 nM and the “TGI A549” value worked out at 4.50E−08 Molar. Further, in test [7], the LC50 was determined as 15 nM, growth was halved (GI50) at 2.12 nM and the “TGI PSN1” value came out at 3.62E−09 Molar.

For the compound `COc1c(C)cc2c(c1O)[C@H]1N[C@@H](C2)[C@H](C#N)N2[C@H]1[C@@H]1SC[C@]3(NCCc4c3oc3ccccc43)C(=O)OC[C@H]2c2c3c(c(C)c(OC(C)=O)c21)OCO3` [Compound 14], in test [1], the LC50 came out at 29.3 nM, halving of growth (GI50) required 6.66 nM and the “TGI MDA-MB-231” value was 1.13E−08 Molar. Further, in [3], the CC50 is over 133 nM, the concentration for 50% growth inhibition (GI50) is 8.52 nM and the “TGI HT29” value came out at 9.19E−09 Molar. In test [4], the CC50 is over 133 nM, the GI50 turned out to be 8.79 nM and the “TGI A549” value is 1.73E−08 Molar. In test [7], the LC50 amounted to 22.6 nM, the GI50 worked out at 9.72 nM and the “TGI PSN1” value was 1.33E−08 Molar.

For `COc1c(C)cc2c(c1O)[C@H]1N[C@@H](C2)[C@H](O)N2[C@H]1[C@@H]1SC[C@]3(NCCc4c3oc3ccccc43)C(=O)OC[C@H]2c2c3c(c(C)c(OC(C)=O)c21)OCO3` [Compound 15], in test [1], the LC50 was determined as 24.3 nM, the 50% growth inhibitory concentration (GI50) worked out at 7.14 nM and the “TGI MDA-MB-231” value was found to be 1.16E−08 Molar. In [3], the CC50 was over 135 nM, the GI50 was 8.76 nM and the “TGI HT29” value was determined as 9.57E−09 Molar. Moreover, in test [4], the CC50 was over 135 nM, the GI50 came to 12.1 nM and the “TGI A549” value came out at 2.56E−08 Molar. For the same compound, in [7], the LC50 amounted to 45.8 nM, halving of growth (GI50) required 9.98 nM and the “TGI PSN1” value is given as 1.48E−08 Molar.

As to `COc1c(C)cc2c(c1O)[C@H]1N[C@@H](C2)[C@H](O)N2[C@H]1[C@@H]1SC[C@]3(NCCc4c3[nH]c3ccccc43)C(=O)OC[C@H]2c2c3c(c(C)c(OC(C)=O)c21)OCO3` [ET-722, Ecteinascidin 722], in [1], the 50% lethal concentration (LC50) was found to be 2.56 nM, the GI50 amounted to 0.891 nM and the “TGI MDA-MB-231” value is given as 1.48E−09 Molar. For the same compound, in test [3], the CC50 was over 135 nM, the GI50 worked out at 1.35 nM and the “TGI HT29” value amounted to 1.48E−09 Molar. Besides, the “protection of mice in vivo against B16 melanoma” value in test [10] is listed as “protects mice in vivo at very low concentrations”. In [4], the CC50 was over 135 nM, it took 1.35 nM to inhibit growth by half (GI50) and the “TGI A549” value is listed as 1.35E−09 Molar. Also, the “protection of mice in vivo against Lewis lung carcinoma” value in [11] was “protects mice in vivo at very low concentrations”. In test [7], the LC50 is 3.1 nM, it took 1.48 nM to inhibit growth by half (GI50) and the “TGI PSN1” value is 2.16E−09 Molar. Moreover, the “protection of mice in vivo against P388 lymphoma” value in test [12] is on record as “protects mice in vivo at very low concentrations”.
